Assays:
Type in all cases: cell-based, mink
[1] = system: luciferase reporter gene driven by the PAI-1 promoter; test: Luciferase activity assay, MLECs-clone 32
Procedure: (§1) (A, B, C, D, E, F) Cells were treated with 50 μg/ml cholesterol (A, B, C, D) and 50 μg/ml LDL (D) at 37° C. for 1 hr or with 1 μM fluvastatin or lovastatin (E) or several concentrations of fluvastatin (F) at 37° C. for 16 hr and then further incubated with increasing concentrations (as indicated) of TGF-β1 (A, B, C, E) or 50 pM TGF-β1 (D,F) for 2 hr. Northern blot analysis of PAI-1 and G3PDH was performed. A representative of a total of three analyses is shown (a). The relative intensities of the transcripts were quantified with a PhosphoImager. The ratio of the relative intensities of PAI-1 and G3PDH transcripts in cells treated without TGF-β1 and cholesterol, LDL or statins on the blot was taken as 1 fold or 100% of PAI-1 expression. The quantitative data from three independent analyses is shown (b). […] (G) Mv1Lu cells stably expressing a luciferase reporter gene driven by the PAI-1 promoter (MLECs-clone 32) were treated with increasing concentrations (as indicated) of cholesterol at 37 EC for 1 hr (a) or with 1 μM lovastatin at 37° C. for 16 hr (b) and then further incubated with 50 pM TGF-β for 7 hr. The luciferase activity in cells treated without cholesterol was taken as 100% (a). […] (H) Cells were incubated with 0.0625 and 0.125 pM TGF-β1 in the presence of increasing concentrations of cholesterol, as indicated. […] The experiments were carried out in triplicate.

[2] = system: PAI-1 expression; test: TGF-β1-induced PAI-1 expression, Northern blot, Mv1Lu cells; conditions: for enhancement of PAI-1 expression: 1 μM, 16 hr
Procedure: as §1

[3] = system: TβR-I and TβR-II; test: Lipid raft / non-lipid raft localization by sucrose density gradient ultracentrifugation, Mv1Lu cells; conditions: for plasma membrane microdomain localization of TβR-II (FIG. 5F): 1 μM statin 16 hr, nystatin 25 μg/ml or cholesterol 50 μg/ml 1 hr
Procedure: (A, B, C, D) Cells were treated with or without 50 μg/ml cholesterol (A,B,C,D) or several concentrations of cholesterol, as indicated in the presence and absence of 1% β-CD (E) at 37° C. for 1 hr and further incubated with (C,D) and without (A,B) 50 pM TGF-β1 for 1 hr. The cell lysates from these treated cells were subjected to sucrose density gradient ultracentrifugation. After ultracentrifugation, fractions were collected and analyzed by 7.5% SDS-PAGE followed by Western blot analysis using antibodies to TβR-I, TβR-II and caveolin-1. […] Fractions 4 and 5 represent fractions containing lipid rafts/caveolae whereas fractions 7 and 8 represent non-lipid raft fractions.
(F, G) Cells were treated with or without 1 μM lovastatin/fluvastatin or nystatin (25 μg/ml)/cholesterol (50 μg/ml) at 37° C. for 16 hr or 1 hr, respectively. The treated cells were directly analyzed by sucrose density gradient ultracentrifugation analysis (F) or further incubated with 50 pM TGF-β at 37° C. for several time periods as indicated (G). Western blot analysis of the sucrose density gradient fractions (F) and of TGF-β1-treated cell lysates (G) was performed using antibody to TβR-II. The relative levels of TβR-II and α-actin were quantified by densitometry. Fractions ⅘ and 7 represent lipid raft/caveolae and non-lipid raft fractions, respectively. The asterisk (*) indicates the increased level of TβR-II in the fraction (F). The ratio of the relative intensities of TβR-II and α-actin in cells treated without TGF-β1 was taken as 100% of the TβR-II level. A representative of a total of three independent analyses is shown (G, top). The quantitative data from three independent analyses is shown (G, bottom). The data bar represents the mean±S.D.
Mv1Lu, CHO-K1, or NRK cells were grown to near confluence in 100-mm dishes (5-10×10^6 per dish). Cells were incubated with cholesterol ([…]) at 37° C. for 1 hours and then incubated with TGF-β1 (100 pM) for 1 hr. After two washes with ice-cold phosphate-buffered saline, cells were scraped into 0.85 ml of 500 mM sodium carbonate, pH 11.0. Homogenization was carried out with 10 strokes of a tight-fitting Dounce homogenizer followed by three 20-s bursts of ultrasonic disintegrator, (Soniprep 150; Fisher Scientific) to disrupt cellular membranes as described previously (32). The homogenates were adjusted to 45% sucrose by addition of 0.85 ml of 90% sucrose in 25 mM 2-(N-morpholino) ethanesulfonic acid, pH 6.5, 0.15 M NaCl (MBS), and placed at the bottom of an ultracentrifuge tube. […] Ten 0.5-ml fractions were collected from the top of the tubes, and a portion of each fraction was analyzed by SDS-PAGE followed by Western blot analysis using antibodies to TβR-I and TβR-II and caveolin-1. […]

Row | effect of cholesterol alone on TGF-β-stimulated luciferase activity ([1]; 25 ug/ml, without lovastatin) | effect on the stimulatory effect of lovastatin on TGF-β-stimulated luciferase activity ([1]; cholesterol 25 ug/ml for 1 hr prior to TGF-β stimulation) | Structure (SMILES) | suppression of TGF-β1-stimulated luciferase activity ([1]; 50 μg/ml, 50 pM TGF-β1) [%] | luciferase activity ([1]; cells treated with cholesterol (25 ug/ml), lovastatin and TGF-β1) [A.U] | suppression of TGF-β1-stimulated PAI-1 expression ([2]; 50 μg/ml, TGF-β1 2 to 100 pM, Mv1Lu cells) | plasma membrane microdomain localization of TβR-II (FIG. 5F) [3] | localization of TβR-I and TβR-II in plasma membrane fractions ([3]; 50 μg/ml, 1 hr, fractions 4 and 5) | enhancement of TGF-β1-stimulated luciferase activity ([1]; 1 μM, 16 hr, 50 pM TGF-β1) [fold] | enhancement of PAI-1 expression ([2]; 10 pM TGF-β1, Mv1Lu cells) | enhancement of PAI-1 expression ([2]; 50 pM TGF-β1, Mv1Lu cells) [fold] | effect on the LDL and cholesterol suppression of PAI-1 expression ([2]; 25 μg/ml nystatin present, data not shown)
1 | did not alter | abolished | CC(C)CCC[C@@H](C)[C@H]1CC[C@H]2[C@@H]3CC=C4C[C@@H](O)CC[C@]4(C)[C@H]3CC[C@]12C [cholesterol] | 40 | 2314±120 | 65-70% | increased the localization of TβR-II in lipid rafts/caveolae | enriched in the lipid raft/caveolae fractions | – | – | – | –
2 | – | – | CC[C@H](C)C(=O)O[C@H]1C[C@@H](C)C=C2C=C[C@H](C)[C@H](CC[C@@H]3C[C@@H](O)CC(=O)O3)[C@H]21 [lovastatin, reference compound] | – | – | – | increased the localization of TβR-II in non-lipid raft microdomains | – | 1.7 | did not enhance | 3 | –
3 | – | – | C[C@@H]1[C@H](O)[C@@H](C)/C=C/C=C/CC/C=C/C=C/C=C/C=C/C(O[C@H]2O[C@H](C)[C@@H](O)[C@H](N)[C@@H]2O)CC2O[C@](O)(CC(O)C(O)CCC(O)CC(O)CC(O)CC(=O)O[C@H]1C)CC(O)C2C(=O)O (stereo partly shown) [nystatin, reference compound] | – | – | – | increased the localization of TβR-II in non-lipid raft microdomains | – | – | – | – | abolished
